From patent publication US11753445B2, “Therapeutic peptides” (COHBAR, INC., priority 2016, dated 2023)
Peptide text beside a SMILES is read from it.

Tests used:
3T3-L1 Adipocytes = test: Free fatty acid levels in cultured mouse 3T3-L1 adipocytes, isoproterenol stimulated (Example 2); format: cell-based; settings: test peptides 25 μM; isoproterenol 1 nM
Experimental: Mouse 3T3-L1 cells were seeded at a density between 1,000-20,000 cells per well on 96-well, 48-well, or 24-well plates in Pre-adipocyte Medium (Zen-Bio, Durham, N.C.) and grown to confluence at 37° C. in a humidified atmosphere of 5% CO2/95% air. Two days after confluence, cells were placed in Adipocyte Differentiation Medium (Zen-Bio, Durham, N.C.) and cultured for three additional days at 37° C. in a humidified atmosphere of 5% CO2/95% air. The culture media was then replaced with Adipocyte Maintenance Medium (Zen-Bio) and the cells were maintained for an additional 9-14 days at 37° C. in a humidified atmosphere of 5% CO2/95% air with partial medium replacement every other day. Following 12-17 days of differentiation, test peptides were added at a final concentration of 25 μM and incubated for 18-20 hours in Adipocyte Maintenance Medium at 37° C. in a humidified atmosphere of 5% CO2/95%. After 18-20 hours, the media was exchanged with fresh Adipocyte Maintenance Medium containing test peptides and incubated for 1 h at 37° C. in a humidified atmosphere of 5% CO2/95%. After 1 h media was exchanged with Assay Buffer (Zen-Bio) containing isoproterenol (1 nM) (added to all samples except untreated controls) and the test peptides. Cells were incubated for a further 3 hours at 37° C. in a humidified atmosphere of 5% CO2/95%. Free fatty acid concentrations in the media were determined using a Free Fatty Acid Assay Kit (Zen-Bio) according to the manufacturer's instructions using a plate reader (540 nm).
Absorbance values were corrected for untreated background and expressed relative to isoproterenol treated cells. Treatment with isoproterenol (1 nM) alone was used as the free fatty acid level stimulatory control. The relative standard deviation of the isoproterenol control was <10%. […] Free fatty acid levels for insulin (100 nM) treatment were <5% of the isoproterenol control value.

[1] = Stability in mouse plasma, peptides 10 uM (Example 15); format: in vitro ADME; settings: mouse plasma 37° C., peptide 10 uM; for remaining at 0.25 h, 10 uM / remaining at 0.5 h, 10 uM / remaining at 1 h, 10 uM / remaining at 2 h, 10 uM / remaining at 3 h, 10 uM: pooled mouse plasma; for remaining at 0.25 h, 10 uM: 15 min, read-out: % Remaining at Each Time Point: 15 min; for remaining at 0.5 h, 10 uM: 30 min, read-out: % Remaining at Each Time Point: 30 min; for remaining at 1 h, 10 uM: 60 min, read-out: % Remaining at Each Time Point: 60 min; for remaining at 2 h, 10 uM: 120 min, read-out: % Remaining at Each Time Point: 120 min; for remaining at 3 h, 10 uM: 180 min, read-out: % Remaining at Each Time Point: 180 min
Experimental: Peptides (10 uM) were incubated in pooled mouse plasma at 37° C. and samples were removed and immediately analyzed for the concentration of intact peptide by LC/MS/MS over the course of 3 hours. The percent of peptide remaining in plasma at each time point was calculated relative to the initial peak area (Table 13).

| % Remaining at Each Time Point: 0 min [1] | remaining at 0.25 h, 10 uM [1] | remaining at 0.5 h, 10 uM [1] | remaining at 1 h, 10 uM [1] | remaining at 2 h, 10 uM [1] | remaining at 3 h, 10 uM [1] | Compound | Free Fatty Acid Levels in 3T3-L1 Adipocytes Expressed as a Percent of Isoproterenol Control: Percent of Control Value (3T3-L1 Adipocytes) |
| --- | --- | --- | --- | --- | --- | --- | --- |
| – | – | – | – | – | – | CC[C@H](C)[C@H](NC(=O)[C@H](Cc1ccc(O)cc1)NC(=O)CNC(=O)[C@H](C)NC(=O)[C@H](CCC(=O)O)NC(=O)[C@H](CCC(N)=O)NC(=O)[C@H](Cc1c[nH]c2ccccc12)NC(=O)[C@H](CCCNC(=N)N)NC(=O)[C@@H](C)N)C(=O)N[C@@H](C)C(=O)N[C@@H](CCC(=O)O)C(=O)N1CCC[C@H]1C(=O)N[C@@H](CCCNC(=N)N)C(=O)N[C@@H](CCCCN)C(=O)N[C@@H](CC(C)C)C(=O)N[C@@H](C)C(=O)O [compound 245] (HELM PEPTIDE1{[dA].R.W.Q.E.A.G.Y.I.A.E.P.R.K.L.A}$$$$V2.0) | 78.1% |
| 100% | 85% | 73.4% | 69.3% | 68.1% | 73.7% | H-RWQEENYIAEPR-OH [compound 261] | – |
| – | – | – | – | – | – | H-MRWNEMGYIFYPRKLR-OH [compound 127] | 55.6% |
| – | – | – | – | – | – | CC[C@H](C)[C@H](NC(=O)[C@H](Cc1ccc(O)cc1)NC(=O)[C@@H](C)NC(=O)[C@H](CCSC)NC(=O)[C@H](CCC(=O)O)NC(=O)[C@H](CCC(N)=O)NC(=O)[C@H](Cc1c[nH]c2ccccc12)NC(=O)[C@H](CCCNC(=N)N)NC(=O)[C@@H](N)CCSC)C(=O)N[C@@H](Cc1ccccc1)C(=O)N[C@@H](Cc1ccc(O)cc1)C(=O)N1CCC[C@H]1C(=O)N[C@@H](CCCNC(=N)N)C(=O)N[C@@H](CCCCN)C(=O)N[C@@H](CC(C)C)C(=O)N[C@@H](CCCNC(=N)N)C(=O)O [compound 142] (HELM PEPTIDE1{M.R.W.Q.E.M.[dA].Y.I.F.Y.P.R.K.L.R}$$$$V2.0) | 31.9% |
| – | – | – | – | – | – | CC[C@H](C)[C@H](NC(=O)[C@H](Cc1ccc(O)cc1)NC(=O)CNC(=O)[C@H](CCSC)NC(=O)[C@H](CCC(=O)O)NC(=O)[C@@H](C)NC(=O)[C@H](Cc1c[nH]c2ccccc12)NC(=O)[C@H](CCCNC(=N)N)NC(=O)[C@H](CCSC)NC(C)=O)C(=O)N[C@@H](Cc1ccccc1)C(=O)N[C@@H](Cc1ccc(O)cc1)C(=O)N1CCC[C@H]1C(=O)N[C@@H](CCCNC(=N)N)C(=O)N[C@@H](CCCCN)C(=O)N[C@@H](CC(C)C)C(=O)N[C@@H](CCCNC(=N)N)C(N)=O [compound 155] (HELM PEPTIDE1{[ac].M.R.W.[dA].E.M.G.Y.I.F.Y.P.R.K.L.R.[am]}$$$$V2.0) | 90.1% |
| – | – | – | – | – | – | H-MRWQDMGYIFYPRRLR-OH [compound 126] | 55.6% |
| – | – | – | – | – | – | H-MRWQEMGYIFEPRKLR-OH [compound 177] | 61.4% |
| 100% | 82.2% | 65.2% | 42.2% | 32.8% | 34.8% | H-RWQEENYIFEPR-OH [compound 259] | – |
| 100% | 52.4% | 33.3% | 30.3% | 24% | 18.1% | H-RWQEMQYIFEPR-OH [compound 254] | – |
| 100% | 78.3% | 62.6% | 40.9% | 28.7% | 19.6% | H-RWQEMQYIAYPR-OH [compound 255] | – |
| 100% | 80.7% | 68.6% | 46.9% | 40.5% | 30.8% | H-RWQEEQYIFYPR-OH [compound 263] | – |
| 100% | 63.2% | 53.5% | 36.3% | 30.3% | 21.7% | H-RWQEENYIFYPR-OH [compound 258] | – |
